Laboratory results: patent US20110195950A1, “Organic Compounds” (NOVARTIS AG, priority 2007, published 2011)

Assays:
[1] = molecular target: T1, alpha1 subunit of the GABA-A receptor together with a beta and a gamma subunit (Homo sapiens, UniProt P14867); experiment: GABA-A receptor modulation, voltage-sensitive dye fluorescence assay (alpha1); type: cell-based; conditions: transfected eukaryotic cell line; sub-maximal concentration of GABA; fluorescent signal of voltage-sensitive dye
T1 construct: expressed in transfected cells
T1 sequence (P14867 28-456): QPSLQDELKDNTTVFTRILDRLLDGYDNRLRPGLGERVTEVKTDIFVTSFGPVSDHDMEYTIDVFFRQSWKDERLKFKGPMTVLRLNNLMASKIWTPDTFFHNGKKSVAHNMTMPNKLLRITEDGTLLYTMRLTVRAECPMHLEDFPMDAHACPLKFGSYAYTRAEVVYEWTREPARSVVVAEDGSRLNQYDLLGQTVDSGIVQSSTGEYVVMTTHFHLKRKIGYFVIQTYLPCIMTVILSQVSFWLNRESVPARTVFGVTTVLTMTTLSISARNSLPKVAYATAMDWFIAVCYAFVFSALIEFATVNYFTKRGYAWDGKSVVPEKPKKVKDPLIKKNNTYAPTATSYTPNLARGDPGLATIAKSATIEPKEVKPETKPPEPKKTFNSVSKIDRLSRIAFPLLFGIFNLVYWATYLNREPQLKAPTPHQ
T1 sequence (P47870 25-512 partner limits assumed): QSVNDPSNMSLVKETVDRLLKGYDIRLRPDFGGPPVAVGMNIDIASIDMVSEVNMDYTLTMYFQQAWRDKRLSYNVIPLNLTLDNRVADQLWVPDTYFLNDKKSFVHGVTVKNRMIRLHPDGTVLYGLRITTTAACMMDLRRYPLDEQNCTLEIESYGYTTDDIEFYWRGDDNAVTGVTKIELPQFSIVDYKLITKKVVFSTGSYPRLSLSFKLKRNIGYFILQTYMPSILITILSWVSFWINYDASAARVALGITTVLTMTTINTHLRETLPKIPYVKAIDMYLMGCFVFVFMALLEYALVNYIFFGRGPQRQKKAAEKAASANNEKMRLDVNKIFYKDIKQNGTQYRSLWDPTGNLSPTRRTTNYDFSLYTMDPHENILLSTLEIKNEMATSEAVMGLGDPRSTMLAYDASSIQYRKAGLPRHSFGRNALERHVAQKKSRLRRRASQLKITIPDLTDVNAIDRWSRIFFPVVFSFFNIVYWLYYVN
T1 sequence (P18507 40-467 partner limits assumed): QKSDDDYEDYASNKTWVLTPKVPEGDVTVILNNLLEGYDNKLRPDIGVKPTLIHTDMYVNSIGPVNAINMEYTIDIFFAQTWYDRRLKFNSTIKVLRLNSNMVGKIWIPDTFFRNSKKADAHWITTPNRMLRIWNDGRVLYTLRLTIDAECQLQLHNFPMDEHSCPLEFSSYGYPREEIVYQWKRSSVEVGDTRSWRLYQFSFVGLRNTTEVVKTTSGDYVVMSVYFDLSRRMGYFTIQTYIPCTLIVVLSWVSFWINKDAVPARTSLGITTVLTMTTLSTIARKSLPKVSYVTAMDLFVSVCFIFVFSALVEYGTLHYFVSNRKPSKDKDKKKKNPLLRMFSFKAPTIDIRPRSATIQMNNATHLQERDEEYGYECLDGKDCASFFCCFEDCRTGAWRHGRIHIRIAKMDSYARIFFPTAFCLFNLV

[2] = molecular target: T2, alpha2 subunit of the GABA-A receptor together with a beta and a gamma subunit (Homo sapiens, UniProt P47869); experiment: GABA-A receptor modulation, voltage-sensitive dye fluorescence assay (alpha2); type: cell-based; conditions: transfected eukaryotic cell line; sub-maximal concentration of GABA; fluorescent signal of voltage-sensitive dye
T2 construct: expressed in transfected cells
T2 sequence (P47869 29-451): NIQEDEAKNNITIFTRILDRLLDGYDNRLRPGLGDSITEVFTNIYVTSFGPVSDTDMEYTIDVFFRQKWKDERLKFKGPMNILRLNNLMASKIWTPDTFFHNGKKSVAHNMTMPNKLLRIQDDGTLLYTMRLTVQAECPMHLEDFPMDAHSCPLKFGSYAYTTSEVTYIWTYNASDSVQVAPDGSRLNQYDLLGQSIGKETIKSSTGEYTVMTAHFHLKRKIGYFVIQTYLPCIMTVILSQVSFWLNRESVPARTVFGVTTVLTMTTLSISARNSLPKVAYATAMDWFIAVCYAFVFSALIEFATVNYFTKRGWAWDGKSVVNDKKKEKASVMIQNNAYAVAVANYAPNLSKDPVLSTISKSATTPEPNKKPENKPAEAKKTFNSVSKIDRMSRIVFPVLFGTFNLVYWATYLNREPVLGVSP
T2 sequence (P28472 26-473 partner): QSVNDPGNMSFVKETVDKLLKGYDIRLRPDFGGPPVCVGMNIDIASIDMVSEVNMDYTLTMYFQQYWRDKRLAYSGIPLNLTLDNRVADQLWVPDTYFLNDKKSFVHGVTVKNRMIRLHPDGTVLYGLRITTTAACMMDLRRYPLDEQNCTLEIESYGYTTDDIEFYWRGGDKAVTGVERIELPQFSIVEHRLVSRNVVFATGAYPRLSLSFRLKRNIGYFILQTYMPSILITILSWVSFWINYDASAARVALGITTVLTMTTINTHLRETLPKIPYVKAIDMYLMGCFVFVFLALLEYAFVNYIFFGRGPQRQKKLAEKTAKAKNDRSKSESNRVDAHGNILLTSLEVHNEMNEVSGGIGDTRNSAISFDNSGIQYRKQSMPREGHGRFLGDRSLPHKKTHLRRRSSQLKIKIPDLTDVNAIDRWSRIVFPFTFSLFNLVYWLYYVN
T2 sequence (P18507 40-467 partner limits assumed): T1 sequence (P18507 40-467 partner limits assumed)
Source text: GABA-A receptor modulators show in functional assays a positive modulation of GABA-induced signals. This modulation can be determined in vitro, e.g., at recombinant GABA-A receptors expressed in a mammalian cell line, e.g. by measurement of GABA-A receptor induced changes of the trans-membrane voltage, when using a voltage-sensitive dye and a fluorescence detection system (Adkins, C. E., Pillai, G. V., Kerby, J., Bonnert, T. P., Haldon, C., Mckernan, R. M., Gonzalez, J. E., Oades, K., Whiting, P. J. & Simpson, P. B. [2001]. alpha4beta3delta GABA-A receptors characterized by fluorescence resonance energy transfer-derived measurements of membrane potential. J. Biol. Chem., 276, 38934-38939). In this assay, a modulator compound is pre-applied at different concentrations ranging from 0.1 nM to 10 μM to cells expressing GABA-A receptors and loaded with the voltage-sensitive dye, before, or at the same time as, a sub-maximal concentration of GABA (in the range of from 0.1 to 10 μM) is applied to the cells. The fluorescent signal is correlated with the degree of GABA-A receptor channel opening. This allows the quantification of effects induced by the modulator in a functional manner. By expression of different GABA-A receptor subunit combinations, the differential efficacy of a modulator at different GABA-A receptor variants can be tested. […]

## Clc1ccc(-n2nc3c4c(ncc3c2OCc2ccccc2Cl)CCCC4)cc1 [Example 1, 3-(2-Chloro-benzyloxy)-2-(4-chloro-phenyl)-6,7,8,9-tetrahydro-2H-pyrazolo[4,3-c]quinoline]
[1]
  modulation of the GABA-induced response, alpha1 subunit: 37%
[2]
  modulation of the GABA-induced response, alpha2 subunit: 140%
